From patent EP4741392A1, “1H-PYRAZOLO[4,3-C]PYRIDINE COMPOUND, AND COMPOSITION THEREOF AND USE THEREOF” (Shenzhen TargetRx Co., Ltd., priority 2023, dated 2025)
Like-named read-outs stand apart in the source and are kept apart here.

Assays:
BTK C481S = target: T1, BTK C481S (Homo sapiens, UniProt Q06187, C481S); assay: Kinase activity inhibition assay (HTRF TK Kit); type: biochemical
T1 construct: purchased Carna 08-547
How it was run: (§1)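 Compounds are serially diluted and incubated with kinase, substrate and ATP at room temperature, the plate having been prepared on ice. Detection reagents are then added for 1 h, and the 665/620 nm fluorescence ratio is converted to percent inhibition for curve fitting.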

BTK T474I = target: T2, BTK T474I (Homo sapiens, UniProt Q06187, T474I); assay: Kinase activity inhibition assay (HTRF TK Kit); type: biochemical
T2 construct: purchased SignalChem B10-12HH
How it was run: as §1

BTK kinase = target: T3, BTK kinase (Homo sapiens, UniProt Q06187); assay: Kinase activity inhibition assay (HTRF TK Kit); type: biochemical
T3 construct: purchased Invitrogen PV3587
How it was run: as §1

NIH/3T3 BTK C481S cells = assay: Phosphor-BTK(Y223) assay, adherent cells; type: cell-based; details: read-out: NIH/3T3 BTK-C481S pBTK
How it was run: (§2)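 NIH/3T3 cells expressing WT or C481S BTK were pretreated with compound for 0.5 h at 37 °C, then stimulated with 1 mM Na3VO4 (final) for 2 h. Lysates were assayed by HTRF for p-BTK Y223 using the 665/620 nm ratio. IC50 was obtained by nonlinear fit of % inhibition versus 0.5% DMSO control.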

NIH/3T3 BTK WT cells = assay: Phosphor-BTK(Y223) assay, adherent cells; type: cell-based; details: read-out: NIH/3T3 BTK-WT pBTK
How it was run: as §2

[1] = Mus musculus, NIH3T3, phosphorylated BTK Y223, NIH/3T3 BTK C481S cells
[2] = Mus musculus, NIH3T3, phosphorylated BTK Y223, NIH/3T3 BTK WT cells

T2 sequence (Q06187 whole entry T474I): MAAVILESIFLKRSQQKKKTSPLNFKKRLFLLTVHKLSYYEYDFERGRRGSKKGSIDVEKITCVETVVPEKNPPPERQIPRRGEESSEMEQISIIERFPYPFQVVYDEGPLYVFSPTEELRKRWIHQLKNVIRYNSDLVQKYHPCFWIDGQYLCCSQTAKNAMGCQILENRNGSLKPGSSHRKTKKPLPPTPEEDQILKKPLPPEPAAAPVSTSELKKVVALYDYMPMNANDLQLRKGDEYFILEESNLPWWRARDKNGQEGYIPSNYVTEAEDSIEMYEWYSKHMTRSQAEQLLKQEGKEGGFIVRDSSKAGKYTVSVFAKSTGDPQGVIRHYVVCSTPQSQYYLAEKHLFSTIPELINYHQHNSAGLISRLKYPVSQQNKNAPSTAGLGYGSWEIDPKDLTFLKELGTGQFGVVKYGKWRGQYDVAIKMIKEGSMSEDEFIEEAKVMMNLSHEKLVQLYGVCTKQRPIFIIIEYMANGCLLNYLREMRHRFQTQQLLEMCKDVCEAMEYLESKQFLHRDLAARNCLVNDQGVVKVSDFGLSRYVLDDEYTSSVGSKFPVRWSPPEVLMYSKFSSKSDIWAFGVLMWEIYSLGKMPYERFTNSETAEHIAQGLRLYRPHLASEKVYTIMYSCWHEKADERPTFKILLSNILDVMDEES
T1 sequence (Q06187 whole entry C481S): as the sequence (Q06187 whole entry T474I) above, with I474T, C481S counted along it
T3 sequence (Q06187 whole entry): as the sequence (Q06187 whole entry T474I) above, with I474T counted along it

Compound | IC50 (BTK C481S) | IC50 (BTK T474I) | IC50 (BTK kinase) | IC50 (NIH/3T3 BTK C481S cells; [1]) | IC50 (NIH/3T3 BTK WT cells; [2]) | IC50 (NIH/3T3 BTK C481S cells; phosphorylated BTK Y223, NIH/3T3 BTK C481S cells) | IC50 (NIH/3T3 BTK WT cells; phosphorylated BTK Y223, NIH/3T3 BTK WT cells)
COc1ccc(F)cc1C(=O)NCc1ccc(-c2ncc(-c3cc[nH]n3)c3[nH]nc(N)c23)cc1 [Example 31, N-(4-(3-amino-7-(1H-pyrazol-3-yl)-1H-pyrazolo[4,3-c]pyridin-4-yl)benzyl)-5-fluoro-2-methoxybenzamide] | 1 to 5 nM | 50 to 500 nM | 1 to 5 nM | 10 to 50 nM | 5 to 10 nM | – | –
COc1ccc(F)cc1C(=O)NCc1ccc(-c2nc(C(C)C(F)(F)F)c(-c3ncccn3)c3[nH]nc(N)c23)cc1 (single isomer, unassigned) [Example 7-1, N-(4-(3-amino-7-(pyrimidin-2-yl)-6-(1,1,1-trifluoropropan-2-yl)-1H-pyrazolo[4,3-c]pyridin-4-yl)benzyl)-5-fluoro-2-methoxybenzamide] | 1 to 5 nM | 50 to 500 nM | 1 to 5 nM | 5 to 10 nM | ≤ 5 nM | – | –
COc1ccc(F)cc1C(=O)NCc1ccc(-c2ncc(-c3ccc(CN4CCCCC4)cn3)c3[nH]nc(N)c23)cc1 [Example 66, N-(4-(3-amino-7-(5-(piperidin-1-ylmethyl)pyridin-2-yl)-1H-pyrazolo[4,3-c]pyridin-4-yl)benzyl)-5-fluoro-2-methoxybenzamide] | ≤ 1 nM | 5 to 50 nM | ≤ 1 nM | ≤ 5 nM | ≤ 5 nM | – | –
COc1ccc(F)cc1C(=O)NCc1ccc(-c2ncc(-c3ncccn3)c3[nH]nc(N)c23)cc1 [Example 17, N-(4-(3-amino-7-(pyrimidin-2-yl)-1H-pyrazolo[4,3-c]pyridin-4-yl)benzyl)-5-fluoro-2-methoxybenzamide] | 1 to 5 nM | 50 to 500 nM | 1 to 5 nM | 5 to 10 nM | ≤ 5 nM | – | –
COc1ccc(F)cc1C(=O)NCc1ccc(-c2ncc(-c3ccc(C4COC4)cn3)c3[nH]nc(N)c23)cc1 [Example 43, N-(4-(3-amino-7-(5-(oxetan-3-yl)pyridin-2-yl)-1H-pyrazolo[4,3-c]pyridin-4-yl)benzyl)-5-fluoro-2-methoxybenzamide] | ≤ 1 nM | 5 to 50 nM | ≤ 1 nM | ≤ 5 nM | ≤ 5 nM | – | –
COc1ccc(F)cc1C(=O)NCc1ccc(-c2ncc(-c3ccc4c(n3)nc3n4CCOC3)c3[nH]nc(N)c23)cc1 [Example 102, N-(4-(3-amino-7-(6,7-dihydro-9H-pyrido[2',3':4,5]imidazo[2,1-c][1,4]oxazin-2-yl)-1H-pyrazolo[4,3-c]pyridin-4-yl)benzyl)-5-fluoro-2-methoxybenzamide] | 5 to 50 nM | > 500 nM | 5 to 50 nM | 10 to 50 nM | 10 to 50 nM | – | –
COc1ccc(F)cc1C(=O)NCc1ccc(-c2ncc(-c3ccn(CC(F)(F)F)n3)c3[nH]nc(N)c23)cc1 [Example 28, N-(4-(3-amino-7-(1-(2,2,2-trifluoroethyl)-1H-pyrazol-3-yl)-1H-pyrazolo[4,3-c]pyridin-4-yl)benzyl)-5-fluoro-2-methoxybenzamide] | 1 to 5 nM | 50 to 500 nM | 1 to 5 nM | 10 to 50 nM | ≤ 5 nM | – | –
COc1ccc(F)cc1C(=O)NCc1ccc(-c2ncc(-c3ccc(C(C)(C)O)cn3)c3[nH]nc(N)c23)cc1 [Example 65, N-(4-(3-amino-7-(5-(2-hydroxypropan-2-yl)pyridin-2-yl)-1H-pyrazolo[4,3-c]pyridin-4-yl)benzyl)-5-fluoro-2-methoxybenzamide] | 1 to 5 nM | 1 to 5 nM | 1 to 5 nM | 5 to 10 nM | ≤ 5 nM | – | –
COc1ccc(F)cc1C(=O)NCc1ccc(-c2ncc(-c3ccc(OCCN4CCOCC4)cn3)c3[nH]nc(N)c23)cc1 [Example 61, N-(4-(3-amino-7-(5-(2-morpholinoethoxy)pyridin-2-yl)-1H-pyrazolo[4,3-c]pyridin-4-yl)benzyl)-5-fluoro-2-methoxybenzamide] | ≤ 1 nM | 5 to 50 nM | ≤ 1 nM | ≤ 5 nM | ≤ 5 nM | – | –
N-(4-(3-amino-7-(1-(difluoromethyl)-1H-pyrazol-3-yl)-1H-pyrazolo[4,3-c]pyridin-4-yl)benzyl)-5-fluoro-2-methoxybenzamide [Example 29] | ≤ 1 nM | 5 to 50 nM | ≤ 1 nM | – | – | 5 to 10 nM | ≤ 5 nM
COc1ccc(F)cc1C(=O)NCc1ccc(-c2ncc(-c3ccc(S(C)(=O)=O)cn3)c3[nH]nc(N)c23)cc1 [Example 35, N-(4-(3-amino-7-(5-(methylsulfonyl)pyridin-2-yl)-1H-pyrazolo[4,3-c]pyridin-4-yl)benzyl)-5-fluoro-2-methoxybenzamide] | ≤ 1 nM | 5 to 50 nM | ≤ 1 nM | ≤ 5 nM | ≤ 5 nM | – | –
COc1ccc(F)cc1C(=O)NCc1ccc(-c2ncc(-c3ncc(C)cn3)c3[nH]nc(N)c23)cc1 [Example 39, N-(4-(3-amino-7-(5-methylpyrimidin-2-yl)-1H-pyrazolo[4,3-c]pyridin-4-yl)benzyl)-5-fluoro-2-methoxybenzamide] | ≤ 1 nM | 5 to 50 nM | ≤ 1 nM | ≤ 5 nM | ≤ 5 nM | – | –
COc1ccc(F)cc1C(=O)NCc1ccc(-c2ncc(-c3ccn4nccc4n3)c3[nH]nc(N)c23)cc1 [Example 46, N-(4-(3-amino-7-(pyrazolo[1,5-a]pyrimidin-5-yl)-1H-pyrazolo[4,3-c]pyridin-4-yl)benzyl)-5-fluoro-2-methoxybenzamide] | 1 to 5 nM | 50 to 500 nM | 1 to 5 nM | 5 to 10 nM | ≤ 5 nM | – | –
COc1ccc(F)cc1C(=O)NCc1ccc(-c2ncc(-c3nccn4nccc34)c3[nH]nc(N)c23)cc1 [Example 98, N-(4-(3-amino-7-(pyrazolo[1,5-a]pyrazin-4-yl)-1H-pyrazolo[4,3-c]pyridin-4-yl)benzyl)-5-fluoro-2-methoxybenzamide] | 1 to 5 nM | 50 to 500 nM | 1 to 5 nM | ≤ 5 nM | ≤ 5 nM | – | –
COc1ccc(F)cc1C(=O)NCc1ccc(-c2ncc(-c3ccc(C(=O)N4C[C@@H](C)O[C@H](C)C4)cn3)c3[nH]nc(N)c23)cc1 [Example 54, N-(4-(3-amino-7-(5-((2R,6R)-2,6-dimethylmoroholine-4-carbonyl)pyridin-2-yl)-1H-pyrazolo[4,3-c]pyridin-4-yl)benzyl)-5-fluoro-2-methoxybenzamide] | 1 to 5 nM | 50 to 500 nM | 1 to 5 nM | ≤ 5 nM | ≤ 5 nM | – | –
COc1ccc(F)cc1C(=O)NCc1ccc(-c2ncc(-c3ccc4cn[nH]c4n3)c3[nH]nc(N)c23)cc1 [Example 47, N-(4-(3-amino-7-(1H-pyrazolo[3,4-b]pyridin-6-yl)-1H-pyrazolo[4,3-c]pyridin-4-yl)benzyl)-5-fluoro-2-methoxybenzamide] | 1 to 5 nM | 50 to 500 nM | 1 to 5 nM | 10 to 50 nM | 5 to 10 nM | – | –
COc1ccc(F)cc1C(=O)NCc1ccc(-c2ncc(-c3cc(NC(=O)C4CC4)ccn3)c3[nH]nc(N)c23)cc1 [Example 80, N-(4-(3-amino-7-(4-(cyclopropaneformamido)pyridin-2-yl)-1H-pyrazolo[4,3-c]pyridin-4-yl)benzyl)-5-fluoro-2-methoxybenzamide] | 1 to 5 nM | 50 to 500 nM | 1 to 5 nM | 5 to 10 nM | 5 to 10 nM | – | –
COc1ccc(F)cc1C(=O)NCc1ccc(-c2ncc(-c3ccc(N4CCOCC4)cn3)c3[nH]nc(N)c23)cc1 [Example 76, N-(4-(3-amino-7-(5-morpholinopyridin-2-yl)-1H-pyrazolo[4,3-c]pyridin-4-yl)benzyl)-5-fluoro-2-methoxybenzamide] | ≤ 1 nM | 1 to 5 nM | ≤ 1 nM | ≤ 5 nM | ≤ 5 nM | – | –
COc1ccc(F)cc1C(=O)NCc1ccc(-c2ncc(-c3ccc(F)cn3)c3[nH]nc(N)c23)c(F)c1 [Example 82, N-(4-(3-amino-7-(5-fluoropyridin-2-yl)-1H-pyrazolo[4,3-c]pyridin-4-yl)-3-fluorobenzyl)-5-fluoro-2-methoxybenzamide] | 1 to 5 nM | 50 to 500 nM | 1 to 5 nM | ≤ 5 nM | ≤ 5 nM | – | –
COc1ccc(F)cc1C(=O)NCc1ccc(-c2ncc(-c3ccc(P(C)(C)=O)cn3)c3[nH]nc(N)c23)cc1 [Example 56, N-(4-(3-amino-7-(5-(dimethylphosphoryl)pyridin-2-yl)-1H-pyrazolo[4,3-c]pyridin-4-yl)benzyl)-5-fluoro-2-methoxybenzamide] | 1 to 5 nM | 5 to 50 nM | 1 to 5 nM | > 50 nM | > 50 nM | – | –
COc1ccc(F)cc1C(=O)NCc1ccc(-c2ncc(-c3ccc(N4CCN(C)C[C@H]4C)cn3)c3[nH]nc(N)c23)cc1 [Example 75, (R)-N-(-4-(3-amino-7-(5-(2,4-dimethylpiperazin-1-yl)pyridin-2-yl) 1H-pyrazolo[4,3-c]pyridin-4-yl)benzyl)-5-fluoro-2-methoxybenzamide] | ≤ 1 nM | 5 to 50 nM | 1 to 5 nM | ≤ 5 nM | ≤ 5 nM | – | –
